{"source": "paper PMC10897476", "about": "“Pyridylpiperazine efflux pump inhibitor boosts in vivo antibiotic efficacy against K. pneumoniae” (EMBO Molecular Medicine, 2023)", "assay_type_in_all_cases": "cell-based, Klebsiella pneumoniae", "key": {"[1]": {"system": "K. pneumoniae ATCC 43816 (WT)", "test": "MIC of antibiotics with and without EPI (REMA), WT strain", "conditions": "for Minimum Inhibitory Concentration / MIC: K. pneumoniae WT; for MIC: Klebsiella pneumoniae, ATCC43816, No EPI, read-out: Minimum Inhibitory Concentration", "description": "Overnight cultures were diluted to an OD600 = 0.001 in CAMHB followed by addition of efflux pump inhibitors (EPIs) at a final concentration of 100 µM. […] Plates were incubated at 37 °C for up to 20 h. […] MICs were defined as the concentration that prevented 90% of resazurin turnover compared to the non-treated bacteria."}, "K. pneumoniae AcrB^V448E": {"system": "K. pneumoniae AcrB^V448E", "test": "MIC of antibiotics with and without EPI (REMA), AcrB V448E mutant", "conditions": "for Minimum Inhibitory Concentration: K. pneumoniae AcrB^V448E; for MIC: Klebsiella pneumoniae, read-out: Minimum Inhibitory Concentration", "description": "(§1) MIC experiments were carried out according to the CLSI guidelines (CLSI [2023]). Overnight cultures were diluted to an OD600 = 0.001 in CAMHB followed by addition of efflux pump inhibitors (EPIs) at a final concentration of 100 µM. […] Plates were incubated at 37 °C for up to 20 h. Bacterial viability was evaluated using the resazurin microtitre assay (REMA) and measured by fluorescence using a Tecan Spaert multimode plate reader (Ex: 530 nm Em: 590 nm). MICs were defined as the concentration that prevented 90% of resazurin turnover compared to the non-treated bacteria.\n(§2) Mutations in acrB or ramR identified in the BDM88855.HCl (1’) resistant mutant (a.k.a., KPJC11) were introduced individually into K. pneumoniae ATCC 43816 chromosome by allelic exchange (Cianfanelli et al, [2020]). Briefly, 1-kb PCR products centred around each point mutation were generated by amplifying acrB with primers RH1251 ([…][…]) and RH1252 ([…][…]) or ramR with primers RH1249 ([…][…]) and RH1250 ([…][…]) from KPJC11 genomic DNA. PCR fragments were cloned into pFOK (Cianfanelli et al, [2020]) using NEB-building kit ([New England Biolabs]) to generate pEP1533 and pEP1534. Correct plasmids were confirmed by sequencing and introduced into K. pneumoniae ATCC43816 WT via conjugation with the MFDpir+ E. coli donor strain. Exconjugants were selected on kanamycin (50 mg/L) plates at 37 °C and plasmid chromosomal integration was checked by PCR. […] The next day, cultures were diluted and plated onto LB agar. Isolated colonies were then patched onto LB plates with or without kanamycin (50 mg/L) and Km^S candidates were evaluated for correct allelic exchange via acrB or ramR sequencing and then WGS to confirm no additional mutations were introduced."}, "[2]": {"system": "K. pneumoniae RamR^mut (K124*stop)", "test": "MIC of antibiotics with and without EPI (REMA), RamR mutant", "conditions": "for Minimum Inhibitory Concentration: K. pneumoniae RamR^mut; for MIC: Klebsiella pneumoniae, read-out: Minimum Inhibitory Concentration", "description": "as §1, §2"}, "[3]": {"system": "K. pneumoniae AcrB^V448E RamR^mut", "test": "MIC of antibiotics with and without EPI (REMA), double mutant", "conditions": "for Minimum Inhibitory Concentration: K. pneumoniae AcrB^V448E RamR^mut; for MIC: Klebsiella pneumoniae, read-out: Minimum Inhibitory Concentration", "description": "as §1"}}, "note": "Marks after values point to notes of the source that are not given here."}
{"smiles": "CC[C@H]1OC(=O)[C@H](C)[C@@H](O[C@H]2C[C@@](C)(OC)[C@@H](O)[C@H](C)O2)[C@H](C)[C@@H](O[C@@H]2O[C@H](C)C[C@H](N(C)C)[C@H]2O)[C@](C)(O)C[C@@H](C)CN(C)[C@H](C)[C@@H](O)[C@]1(C)O", "note": "[Azithromycin]", "values": [{"measurement": "Minimum Inhibitory Concentration", "setting": "[1]; + 100 µM 1'", "value": "2.7^# mg/L"}, {"measurement": "Minimum Inhibitory Concentration", "setting": "[1]; + 100 µM 5", "value": "2.0^# mg/L"}, {"measurement": "Minimum Inhibitory Concentration", "setting": "[1]; + 100 µM PAβN", "value": "0.5^# mg/L"}, {"measurement": "MIC", "setting": "[1]", "value": 16, "unit": "mg/L"}, {"measurement": "boosting of antibiotic activity in combination with EPIs", "setting": "[1]; Table 2", "value": "at least 8 fold"}, {"measurement": "Minimum Inhibitory Concentration", "setting": "K. pneumoniae AcrB^V448E; + 100 µM 1'", "value": "6.7^# mg/L"}, {"measurement": "Minimum Inhibitory Concentration", "setting": "K. pneumoniae AcrB^V448E; + 100 µM 5", "value": "11^# mg/L"}, {"measurement": "Minimum Inhibitory Concentration", "setting": "K. pneumoniae AcrB^V448E; + 100 µM PAβN", "value": "0.5^# mg/L"}, {"measurement": "MIC", "setting": "K. pneumoniae AcrB^V448E", "value": 21, "unit": "mg/L"}, {"measurement": "Minimum Inhibitory Concentration", "setting": "[2]; + 100 µM 1'", "value": "11^# mg/L"}, {"measurement": "Minimum Inhibitory Concentration", "setting": "[2]; + 100 µM 5", "value": "3.3^# mg/L"}, {"measurement": "Minimum Inhibitory Concentration", "setting": "[2]; + 100 µM PAβN", "value": "0.7^# mg/L"}, {"measurement": "MIC", "setting": "[2]", "value": 37, "unit": "mg/L"}, {"measurement": "Minimum Inhibitory Concentration", "setting": "[3]; + 100 µM 1'", "value": 37, "unit": "mg/L"}, {"measurement": "Minimum Inhibitory Concentration", "setting": "[3]; + 100 µM 5", "value": 21, "unit": "mg/L"}, {"measurement": "Minimum Inhibitory Concentration", "setting": "[3]; + 100 µM PAβN", "value": "0.7^# mg/L"}, {"measurement": "MIC", "setting": "[3]", "value": 21, "unit": "mg/L"}]}
{"smiles": "O=C(N[C@H](CO)[C@H](O)c1ccc([N+](=O)[O-])cc1)C(Cl)Cl", "note": "[Chloramphenicol]", "values": [{"measurement": "Minimum Inhibitory Concentration", "setting": "[1]; + 100 µM 1'", "value": "1.0^# mg/L"}, {"measurement": "Minimum Inhibitory Concentration", "setting": "[1]; + 100 µM 5", "value": "1.0^# mg/L"}, {"measurement": "Minimum Inhibitory Concentration", "setting": "[1]; + 100 µM PAβN", "value": "1.7^# mg/L"}, {"measurement": "MIC", "setting": "[1]", "value": 4, "unit": "mg/L"}, {"measurement": "Minimum Inhibitory Concentration", "setting": "K. pneumoniae AcrB^V448E; + 100 µM 1'", "value": "2.0^# mg/L"}, {"measurement": "Minimum Inhibitory Concentration", "setting": "K. pneumoniae AcrB^V448E; + 100 µM 5", "value": 4.7, "unit": "mg/L"}, {"measurement": "Minimum Inhibitory Concentration", "setting": "K. pneumoniae AcrB^V448E; + 100 µM PAβN", "value": "2.0^# mg/L"}, {"measurement": "MIC", "setting": "K. pneumoniae AcrB^V448E", "value": 6.7, "unit": "mg/L"}, {"measurement": "Minimum Inhibitory Concentration", "setting": "[2]; + 100 µM 1'", "value": "2.7^# mg/L"}, {"measurement": "Minimum Inhibitory Concentration", "setting": "[2]; + 100 µM 5", "value": "4.7^# mg/L"}, {"measurement": "Minimum Inhibitory Concentration", "setting": "[2]; + 100 µM PAβN", "value": "2.7^# mg/L"}, {"measurement": "MIC", "setting": "[2]", "value": 53, "unit": "mg/L"}, {"measurement": "Minimum Inhibitory Concentration", "setting": "[3]; + 100 µM 1'", "value": 128, "unit": "mg/L"}, {"measurement": "Minimum Inhibitory Concentration", "setting": "[3]; + 100 µM 5", "value": 128, "unit": "mg/L"}, {"measurement": "Minimum Inhibitory Concentration", "setting": "[3]; + 100 µM PAβN", "value": "5.3^# mg/L"}, {"measurement": "Minimum Inhibitory Concentration", "setting": "[3]; No EPI", "value": 128, "unit": "mg/L"}]}
{"smiles": "CCN1CCN(C(=O)N[C@@H](C(=O)N[C@@H]2C(=O)N3[C@@H]2SC(C)(C)[C@@H]3C(=O)O)c2ccccc2)C(=O)C1=O", "note": "[Piperacillin]", "values": [{"measurement": "Minimum Inhibitory Concentration", "setting": "[1]; + 100 µM 1'", "value": 5.3, "unit": "mg/L"}, {"measurement": "Minimum Inhibitory Concentration", "setting": "[1]; + 100 µM 5", "value": "4.0^# mg/L"}, {"measurement": "Minimum Inhibitory Concentration", "setting": "[1]; + 100 µM PAβN", "value": 8.0, "unit": "mg/L"}, {"measurement": "MIC", "setting": "[1]", "value": 8, "unit": "mg/L"}, {"measurement": "Minimum Inhibitory Concentration", "setting": "K. pneumoniae AcrB^V448E; + 100 µM 1'", "value": "5.3^# mg/L"}, {"measurement": "Minimum Inhibitory Concentration", "setting": "K. pneumoniae AcrB^V448E; + 100 µM 5", "value": "5.3^# mg/L"}, {"measurement": "Minimum Inhibitory Concentration", "setting": "K. pneumoniae AcrB^V448E; + 100 µM PAβN", "value": 13, "unit": "mg/L"}, {"measurement": "MIC", "setting": "K. pneumoniae AcrB^V448E", "value": 16, "unit": "mg/L"}, {"measurement": "Minimum Inhibitory Concentration", "setting": "[2]; + 100 µM 1'", "value": 16, "unit": "mg/L"}, {"measurement": "Minimum Inhibitory Concentration", "setting": "[2]; + 100 µM 5", "value": "6.7^# mg/L"}, {"measurement": "Minimum Inhibitory Concentration", "setting": "[2]; + 100 µM PAβN", "value": 21, "unit": "mg/L"}, {"measurement": "MIC", "setting": "[2]", "value": 27, "unit": "mg/L"}, {"measurement": "Minimum Inhibitory Concentration", "setting": "[3]; + 100 µM 1'", "value": 37, "unit": "mg/L"}, {"measurement": "Minimum Inhibitory Concentration", "setting": "[3]; + 100 µM 5", "value": 21, "unit": "mg/L"}, {"measurement": "Minimum Inhibitory Concentration", "setting": "[3]; + 100 µM PAβN", "value": 43, "unit": "mg/L"}, {"measurement": "MIC", "setting": "[3]", "value": 21, "unit": "mg/L"}]}
{"smiles": "C[C@H]1[C@H](NC(=O)/C(=N\\OC(C)(C)C(=O)O)c2csc(N)n2)C(=O)N1S(=O)(=O)O", "note": "[Aztreonam]", "values": [{"measurement": "Minimum Inhibitory Concentration", "setting": "[1]; + 100 µM 1'", "value": 0.11, "unit": "mg/L"}, {"measurement": "Minimum Inhibitory Concentration", "setting": "[1]; + 100 µM 5", "value": 0.11, "unit": "mg/L"}, {"measurement": "Minimum Inhibitory Concentration", "setting": "[1]; + 100 µM PAβN", "value": 0.16, "unit": "mg/L"}, {"measurement": "MIC", "setting": "[1]", "value": 0.07, "unit": "mg/L"}, {"measurement": "Minimum Inhibitory Concentration", "setting": "K. pneumoniae AcrB^V448E; + 100 µM 1'", "value": 0.16, "unit": "mg/L"}, {"measurement": "Minimum Inhibitory Concentration", "setting": "K. pneumoniae AcrB^V448E; + 100 µM 5", "value": 0.21, "unit": "mg/L"}, {"measurement": "Minimum Inhibitory Concentration", "setting": "K. pneumoniae AcrB^V448E; + 100 µM PAβN", "value": 0.32, "unit": "mg/L"}, {"measurement": "MIC", "setting": "K. pneumoniae AcrB^V448E", "value": 0.13, "unit": "mg/L"}, {"measurement": "Minimum Inhibitory Concentration", "setting": "[2]; + 100 µM 1'", "value": 0.32, "unit": "mg/L"}, {"measurement": "Minimum Inhibitory Concentration", "setting": "[2]; + 100 µM 5", "value": 0.27, "unit": "mg/L"}, {"measurement": "Minimum Inhibitory Concentration", "setting": "[2]; + 100 µM PAβN", "value": 0.53, "unit": "mg/L"}, {"measurement": "MIC", "setting": "[2]", "value": 0.43, "unit": "mg/L"}, {"measurement": "Minimum Inhibitory Concentration", "setting": "[3]; + 100 µM 1'", "value": 0.53, "unit": "mg/L"}, {"measurement": "Minimum Inhibitory Concentration", "setting": "[3]; + 100 µM 5", "value": 0.75, "unit": "mg/L"}, {"measurement": "Minimum Inhibitory Concentration", "setting": "[3]; + 100 µM PAβN", "value": 0.53, "unit": "mg/L"}, {"measurement": "MIC", "setting": "[3]", "value": 0.53, "unit": "mg/L"}]}
{"smiles": "Cc1onc(-c2ccccc2)c1C(=O)N[C@@H]1C(=O)N2[C@@H]1SC(C)(C)[C@@H]2C(=O)O", "note": "[Oxacillin]", "values": [{"measurement": "Minimum Inhibitory Concentration", "setting": "[1]; + 100 µM 1'", "value": "32^# mg/L"}, {"measurement": "Minimum Inhibitory Concentration", "setting": "[1]; + 100 µM 5", "value": "43^# mg/L"}]}
